The results in this text go back to ChEMBL document CHEMBL3991601, “The target landscape of clinical kinase drugs” (Science, 2017).

Among the targets are Misshapen-like kinase 1 (Homo sapiens, UniProt Q8N4C8); Myosin-10 (Homo sapiens, UniProt P35580); Obg-like ATPase 1 (Homo sapiens, UniProt Q9NTK5).
Test [1] has as its target Epidermal growth factor receptor (Homo sapiens, UniProt P00533).
Test [2] has as its target T1, Isoleucine--tRNA ligase, mitochondrial (Homo sapiens, UniProt Q9NSE4).
T1 sequence (Q9NSE4 whole entry): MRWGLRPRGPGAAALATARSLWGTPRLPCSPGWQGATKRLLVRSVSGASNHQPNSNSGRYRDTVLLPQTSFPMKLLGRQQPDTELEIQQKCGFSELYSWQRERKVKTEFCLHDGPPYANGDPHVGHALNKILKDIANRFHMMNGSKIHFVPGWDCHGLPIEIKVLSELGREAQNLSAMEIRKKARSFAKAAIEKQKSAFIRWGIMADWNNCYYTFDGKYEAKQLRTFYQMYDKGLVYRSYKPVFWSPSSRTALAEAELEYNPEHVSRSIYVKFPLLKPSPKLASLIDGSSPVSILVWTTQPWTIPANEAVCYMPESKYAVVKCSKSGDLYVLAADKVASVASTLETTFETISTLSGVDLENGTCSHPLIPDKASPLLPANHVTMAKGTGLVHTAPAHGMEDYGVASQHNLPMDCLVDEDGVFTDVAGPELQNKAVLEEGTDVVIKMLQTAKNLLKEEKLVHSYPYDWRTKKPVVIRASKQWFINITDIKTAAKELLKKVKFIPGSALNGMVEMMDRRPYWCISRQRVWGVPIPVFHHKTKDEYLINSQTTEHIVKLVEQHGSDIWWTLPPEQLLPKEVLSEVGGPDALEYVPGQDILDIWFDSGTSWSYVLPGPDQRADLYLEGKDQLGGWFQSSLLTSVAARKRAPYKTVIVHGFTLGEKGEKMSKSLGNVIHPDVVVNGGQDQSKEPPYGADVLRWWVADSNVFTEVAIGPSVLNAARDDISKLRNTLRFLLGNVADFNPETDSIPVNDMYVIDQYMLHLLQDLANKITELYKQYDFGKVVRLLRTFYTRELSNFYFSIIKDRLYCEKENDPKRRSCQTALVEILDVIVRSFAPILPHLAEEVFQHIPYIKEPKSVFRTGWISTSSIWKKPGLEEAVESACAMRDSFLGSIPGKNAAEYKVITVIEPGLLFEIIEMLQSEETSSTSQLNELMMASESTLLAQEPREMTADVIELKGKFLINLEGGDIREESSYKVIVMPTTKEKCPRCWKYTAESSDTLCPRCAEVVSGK

For test [3], the target named is Mitogen-activated protein kinase 14 (Homo sapiens, UniProt Q16539).
In test [4] the target is Hepatocyte growth factor receptor (Homo sapiens, UniProt P08581).
Sequence of Hepatocyte growth factor receptor (P08581 whole entry): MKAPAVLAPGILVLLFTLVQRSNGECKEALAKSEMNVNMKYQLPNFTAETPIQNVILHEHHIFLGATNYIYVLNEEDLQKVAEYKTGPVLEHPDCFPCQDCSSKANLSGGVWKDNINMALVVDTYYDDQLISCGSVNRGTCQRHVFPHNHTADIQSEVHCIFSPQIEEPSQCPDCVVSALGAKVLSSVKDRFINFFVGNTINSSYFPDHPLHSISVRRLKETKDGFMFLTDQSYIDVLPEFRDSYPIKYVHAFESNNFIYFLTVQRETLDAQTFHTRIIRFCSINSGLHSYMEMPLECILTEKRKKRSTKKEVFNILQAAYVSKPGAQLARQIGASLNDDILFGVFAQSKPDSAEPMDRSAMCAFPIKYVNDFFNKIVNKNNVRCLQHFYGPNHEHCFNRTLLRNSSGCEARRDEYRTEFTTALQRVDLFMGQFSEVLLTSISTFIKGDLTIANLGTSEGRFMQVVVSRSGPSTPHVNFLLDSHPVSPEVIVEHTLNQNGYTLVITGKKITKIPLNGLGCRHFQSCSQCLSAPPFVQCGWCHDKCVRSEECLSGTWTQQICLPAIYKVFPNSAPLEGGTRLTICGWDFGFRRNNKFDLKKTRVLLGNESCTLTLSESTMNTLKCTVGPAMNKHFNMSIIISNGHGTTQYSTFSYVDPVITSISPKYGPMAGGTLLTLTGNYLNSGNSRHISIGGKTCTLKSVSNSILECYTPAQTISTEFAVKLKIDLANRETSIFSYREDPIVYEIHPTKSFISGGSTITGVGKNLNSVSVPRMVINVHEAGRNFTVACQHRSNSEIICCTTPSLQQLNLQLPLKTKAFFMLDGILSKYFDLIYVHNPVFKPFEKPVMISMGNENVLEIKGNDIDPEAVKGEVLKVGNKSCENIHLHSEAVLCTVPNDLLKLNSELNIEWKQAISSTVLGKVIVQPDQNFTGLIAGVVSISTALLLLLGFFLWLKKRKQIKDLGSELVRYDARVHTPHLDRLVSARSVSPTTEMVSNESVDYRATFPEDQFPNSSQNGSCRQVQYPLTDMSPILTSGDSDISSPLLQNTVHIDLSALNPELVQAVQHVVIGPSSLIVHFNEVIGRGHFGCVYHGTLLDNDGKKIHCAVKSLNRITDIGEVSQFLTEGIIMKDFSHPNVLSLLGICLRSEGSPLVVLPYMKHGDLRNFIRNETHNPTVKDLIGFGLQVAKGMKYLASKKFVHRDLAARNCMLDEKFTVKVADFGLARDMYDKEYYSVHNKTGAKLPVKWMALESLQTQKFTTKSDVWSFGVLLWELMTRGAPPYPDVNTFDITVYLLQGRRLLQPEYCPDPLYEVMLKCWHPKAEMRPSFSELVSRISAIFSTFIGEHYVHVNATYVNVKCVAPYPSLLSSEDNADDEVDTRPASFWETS
In test [5] the target is Serine/threonine-protein kinase PLK1 (Homo sapiens, UniProt P53350).
Sequence of Serine/threonine-protein kinase PLK1 (P53350 whole entry): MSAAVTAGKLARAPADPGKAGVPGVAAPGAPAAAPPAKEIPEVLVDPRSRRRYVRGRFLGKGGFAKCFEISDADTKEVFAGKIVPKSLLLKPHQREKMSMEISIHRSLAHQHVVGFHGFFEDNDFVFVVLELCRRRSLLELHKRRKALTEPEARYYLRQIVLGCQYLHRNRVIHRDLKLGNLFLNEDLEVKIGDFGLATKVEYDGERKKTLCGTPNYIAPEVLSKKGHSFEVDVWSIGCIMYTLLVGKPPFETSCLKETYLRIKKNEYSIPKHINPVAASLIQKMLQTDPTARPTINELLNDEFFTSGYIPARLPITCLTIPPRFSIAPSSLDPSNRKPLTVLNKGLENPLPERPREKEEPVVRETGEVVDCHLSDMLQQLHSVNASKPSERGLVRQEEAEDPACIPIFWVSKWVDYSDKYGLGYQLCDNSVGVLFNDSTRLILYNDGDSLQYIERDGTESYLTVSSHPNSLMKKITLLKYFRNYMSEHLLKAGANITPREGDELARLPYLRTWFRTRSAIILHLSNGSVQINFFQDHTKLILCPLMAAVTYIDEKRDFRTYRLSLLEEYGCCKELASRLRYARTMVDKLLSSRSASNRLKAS
The target in test [6] is Serine/threonine-protein kinase 24 (Homo sapiens, UniProt Q9Y6E0).
Sequence of Serine/threonine-protein kinase 24 (Q9Y6E0 whole entry): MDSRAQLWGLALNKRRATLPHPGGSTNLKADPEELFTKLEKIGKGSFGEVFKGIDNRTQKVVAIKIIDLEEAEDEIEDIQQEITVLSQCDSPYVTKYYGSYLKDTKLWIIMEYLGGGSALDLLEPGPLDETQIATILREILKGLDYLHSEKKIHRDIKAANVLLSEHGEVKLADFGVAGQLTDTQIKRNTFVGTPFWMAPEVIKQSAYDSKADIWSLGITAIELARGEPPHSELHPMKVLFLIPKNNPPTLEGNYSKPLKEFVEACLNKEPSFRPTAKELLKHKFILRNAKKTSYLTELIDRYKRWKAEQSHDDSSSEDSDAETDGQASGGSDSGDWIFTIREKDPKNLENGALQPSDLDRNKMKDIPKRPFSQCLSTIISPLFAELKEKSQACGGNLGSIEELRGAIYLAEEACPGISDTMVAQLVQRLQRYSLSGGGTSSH
Test [7] concerns the target Serine/threonine-protein kinase 38-like (Homo sapiens, UniProt Q9Y2H1).
Test [8] addresses T2, Eukaryotic translation initiation factor 5B (Homo sapiens, UniProt O60841).
T2 sequence (O60841 whole entry): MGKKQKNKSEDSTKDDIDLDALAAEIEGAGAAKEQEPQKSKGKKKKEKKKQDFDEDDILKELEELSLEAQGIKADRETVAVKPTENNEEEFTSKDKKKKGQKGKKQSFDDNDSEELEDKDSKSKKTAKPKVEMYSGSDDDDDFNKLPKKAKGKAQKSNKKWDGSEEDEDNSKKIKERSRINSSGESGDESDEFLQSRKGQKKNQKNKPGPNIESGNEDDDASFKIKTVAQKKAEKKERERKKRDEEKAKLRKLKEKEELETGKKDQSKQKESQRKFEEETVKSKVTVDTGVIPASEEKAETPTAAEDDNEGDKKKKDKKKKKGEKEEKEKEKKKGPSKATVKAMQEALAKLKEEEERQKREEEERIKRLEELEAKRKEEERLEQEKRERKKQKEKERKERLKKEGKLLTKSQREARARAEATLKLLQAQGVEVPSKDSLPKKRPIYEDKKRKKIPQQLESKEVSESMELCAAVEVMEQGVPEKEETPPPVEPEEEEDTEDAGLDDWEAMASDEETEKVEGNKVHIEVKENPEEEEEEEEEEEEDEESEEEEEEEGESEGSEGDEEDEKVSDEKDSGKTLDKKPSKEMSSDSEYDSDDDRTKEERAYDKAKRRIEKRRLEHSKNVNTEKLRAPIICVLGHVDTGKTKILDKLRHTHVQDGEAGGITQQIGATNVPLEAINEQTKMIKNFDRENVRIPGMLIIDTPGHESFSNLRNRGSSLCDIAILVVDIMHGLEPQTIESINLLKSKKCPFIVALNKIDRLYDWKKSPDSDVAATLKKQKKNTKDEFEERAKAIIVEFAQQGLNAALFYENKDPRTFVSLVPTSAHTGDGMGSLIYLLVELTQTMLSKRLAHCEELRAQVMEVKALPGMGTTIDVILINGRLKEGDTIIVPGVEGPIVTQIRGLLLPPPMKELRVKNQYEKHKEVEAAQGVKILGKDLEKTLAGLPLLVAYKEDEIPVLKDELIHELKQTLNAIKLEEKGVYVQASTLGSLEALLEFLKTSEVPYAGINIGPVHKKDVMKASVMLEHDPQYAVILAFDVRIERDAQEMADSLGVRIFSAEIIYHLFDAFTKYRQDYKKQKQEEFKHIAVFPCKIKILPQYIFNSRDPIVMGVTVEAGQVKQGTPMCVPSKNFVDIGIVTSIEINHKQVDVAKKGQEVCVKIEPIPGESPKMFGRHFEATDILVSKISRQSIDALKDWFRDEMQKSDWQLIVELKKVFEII

Activity calls are given as the source filed them.
Note: in the data inactive means no Kd found up to 30 µM.

Sequence of Misshapen-like kinase 1 (Q8N4C8 whole entry): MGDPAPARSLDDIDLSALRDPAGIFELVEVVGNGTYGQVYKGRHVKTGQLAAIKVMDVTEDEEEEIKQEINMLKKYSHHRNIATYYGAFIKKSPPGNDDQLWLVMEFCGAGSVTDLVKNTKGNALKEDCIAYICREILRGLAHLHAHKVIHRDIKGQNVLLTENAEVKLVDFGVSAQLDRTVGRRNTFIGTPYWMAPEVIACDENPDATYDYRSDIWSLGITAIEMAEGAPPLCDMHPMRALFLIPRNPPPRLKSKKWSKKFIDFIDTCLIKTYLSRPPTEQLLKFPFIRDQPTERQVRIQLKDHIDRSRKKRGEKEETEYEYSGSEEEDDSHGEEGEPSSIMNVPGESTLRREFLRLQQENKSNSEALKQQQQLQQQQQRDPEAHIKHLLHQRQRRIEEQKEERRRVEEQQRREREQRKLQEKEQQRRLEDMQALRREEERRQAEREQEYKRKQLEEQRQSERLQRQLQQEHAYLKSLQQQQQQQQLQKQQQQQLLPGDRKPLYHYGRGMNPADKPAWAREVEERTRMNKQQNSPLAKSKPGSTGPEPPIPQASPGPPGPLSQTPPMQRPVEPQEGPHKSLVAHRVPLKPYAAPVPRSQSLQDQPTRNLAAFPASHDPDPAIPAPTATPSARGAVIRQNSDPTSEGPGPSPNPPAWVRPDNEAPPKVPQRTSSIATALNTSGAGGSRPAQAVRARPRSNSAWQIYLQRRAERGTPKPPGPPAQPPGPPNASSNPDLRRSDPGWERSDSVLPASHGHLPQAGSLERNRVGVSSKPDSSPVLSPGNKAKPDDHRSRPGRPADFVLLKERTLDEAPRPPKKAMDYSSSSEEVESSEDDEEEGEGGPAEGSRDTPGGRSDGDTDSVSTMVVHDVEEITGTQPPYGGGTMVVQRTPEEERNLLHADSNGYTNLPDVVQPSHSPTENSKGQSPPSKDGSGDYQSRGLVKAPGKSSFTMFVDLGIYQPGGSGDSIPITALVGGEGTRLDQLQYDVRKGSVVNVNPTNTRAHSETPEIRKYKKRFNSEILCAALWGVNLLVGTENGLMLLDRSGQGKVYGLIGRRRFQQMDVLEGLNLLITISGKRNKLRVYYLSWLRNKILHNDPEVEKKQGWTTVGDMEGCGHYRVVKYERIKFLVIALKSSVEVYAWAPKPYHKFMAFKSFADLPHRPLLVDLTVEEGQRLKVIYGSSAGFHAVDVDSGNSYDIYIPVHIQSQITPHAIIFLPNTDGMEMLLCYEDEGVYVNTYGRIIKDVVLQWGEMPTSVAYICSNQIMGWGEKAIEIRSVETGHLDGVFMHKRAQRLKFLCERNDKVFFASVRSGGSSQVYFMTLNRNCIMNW
Sequence of Epidermal growth factor receptor (P00533 whole entry): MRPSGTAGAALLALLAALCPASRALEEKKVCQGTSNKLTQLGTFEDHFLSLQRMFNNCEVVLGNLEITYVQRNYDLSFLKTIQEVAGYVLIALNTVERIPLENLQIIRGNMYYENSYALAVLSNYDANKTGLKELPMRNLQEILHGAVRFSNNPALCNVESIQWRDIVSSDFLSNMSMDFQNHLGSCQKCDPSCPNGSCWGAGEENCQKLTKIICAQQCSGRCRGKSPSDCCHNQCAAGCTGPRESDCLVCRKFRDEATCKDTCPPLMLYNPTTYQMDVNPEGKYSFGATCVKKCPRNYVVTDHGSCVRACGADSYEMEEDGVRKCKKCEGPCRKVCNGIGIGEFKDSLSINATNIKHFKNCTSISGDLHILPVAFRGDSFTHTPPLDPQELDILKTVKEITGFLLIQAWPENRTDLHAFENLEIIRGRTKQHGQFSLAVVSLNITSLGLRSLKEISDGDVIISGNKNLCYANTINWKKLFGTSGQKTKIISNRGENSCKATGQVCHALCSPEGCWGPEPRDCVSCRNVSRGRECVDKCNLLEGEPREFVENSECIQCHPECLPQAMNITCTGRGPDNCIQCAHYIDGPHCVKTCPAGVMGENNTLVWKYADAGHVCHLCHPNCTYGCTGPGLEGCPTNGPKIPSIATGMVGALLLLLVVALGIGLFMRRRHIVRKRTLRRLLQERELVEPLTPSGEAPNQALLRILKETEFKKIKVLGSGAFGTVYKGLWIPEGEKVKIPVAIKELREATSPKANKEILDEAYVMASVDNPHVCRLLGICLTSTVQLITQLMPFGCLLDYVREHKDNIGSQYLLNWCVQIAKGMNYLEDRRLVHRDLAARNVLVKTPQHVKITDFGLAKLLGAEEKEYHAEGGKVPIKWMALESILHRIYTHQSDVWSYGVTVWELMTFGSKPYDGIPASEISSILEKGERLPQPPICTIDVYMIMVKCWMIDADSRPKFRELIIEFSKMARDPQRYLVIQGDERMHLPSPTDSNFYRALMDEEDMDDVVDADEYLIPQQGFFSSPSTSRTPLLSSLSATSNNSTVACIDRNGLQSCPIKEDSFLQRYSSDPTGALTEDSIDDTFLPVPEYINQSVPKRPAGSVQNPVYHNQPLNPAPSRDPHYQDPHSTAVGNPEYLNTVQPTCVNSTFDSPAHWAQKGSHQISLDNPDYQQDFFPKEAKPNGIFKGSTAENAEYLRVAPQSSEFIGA

As a reminder, the Kd is the constant that tells how readily two partners part at equilibrium. In the case of `O=C1NC(=O)/C(=C/c2ccc3nccc(-c4ccncc4)c3c2)S1` [GSK-1059615], the Kd (in test [1]; in test [2]; in test [3]; in test [4]; at Misshapen-like kinase 1; at Myosin-10) was > 30 µM (inactive) in each case. The Kd (at Obg-like ATPase 1; in [5]; in [6]; in [7]) was > 30 µM (inactive) in each case.

Consider `CN1CC[C@@H](c2c(O)cc(O)c3c(=O)cc(-c4ccccc4Cl)oc23)[C@@H]1CO`, for which the Kd in [1] was > 30 µM (inactive); in [8], > 30 µM (inactive); in test [2], > 30 µM (inactive); in [3] it was > 30 µM (inactive); in test [4], 6.67 µM; at Misshapen-like kinase 1, > 30 µM (inactive). Further, the Kd on Obg-like ATPase 1 was > 30 µM (inactive); in test [5], 0.021 µM; in test [6] it was > 30 µM (inactive); in [7] it was > 30 µM (inactive).

Consider `Cc1ccc(-n2nc(C(C)(C)C)cc2NC(=O)NCc2cc(F)ccc2Oc2ccc3c(cnn3CCO)c2)cc1` [PEXMETINIB], for which the Kd (in test [1]; in test [8]; in test [2]; in [4]; on Misshapen-like kinase 1; at Myosin-10) was > 30 µM (inactive) in each case. Besides, the Kd (at Obg-like ATPase 1; in test [5]; in test [6]; in test [7]) was > 30 µM (inactive) in each case.

With `Cc1c(F)cc(C(=O)NC2CC2)cc1-c1ccc(C(=O)NCC(C)(C)C)cn1` [LOSMAPIMOD], the Kd in test [1] is > 30 µM (inactive); in test [8], > 30 µM (inactive); at Misshapen-like kinase 1, > 30 µM (inactive); on Obg-like ATPase 1, > 30 µM (inactive); in test [5], > 30 µM (inactive); in test [6], 0.011 µM. The Kd in test [7] was > 30 µM (inactive).

`CN1CCC(COc2cnc(-c3cccc(Cn4nc(-c5cccc(C#N)c5)ccc4=O)c3)nc2)CC1` [TEPOTINIB]: the Kd (in test [8]; in test [2]; on Misshapen-like kinase 1; on Obg-like ATPase 1; in test [5]; in test [7]) was > 30 µM (inactive) throughout.

Take `COc1cc2nccc(Oc3ccc(NC(=O)Nc4cc(C)on4)c(Cl)c3)c2cc1OC` [TIVOZANIB]: the Kd (in test [8]; in test [2]; in test [3]; on Misshapen-like kinase 1; at Myosin-10; on Obg-like ATPase 1) was > 30 µM (inactive) in each case. Moreover, the Kd in test [5], in [6] and in [7] was > 30 µM (inactive) each time.

For `CC[C@@H]1C(=O)N(C)c2cnc(Nc3ccc(C(=O)N[C@H]4CC[C@H](N5CCN(CC6CC6)CC5)CC4)cc3OC)nc2N1C(C)C` [VOLASERTIB], the Kd (in test [1]; in test [8]; in [2]; in test [3]; in test [4]; at Misshapen-like kinase 1) was > 30 µM (inactive) throughout. For the same compound, the Kd (at Myosin-10; at Obg-like ATPase 1; in test [5]; in test [6]; in test [7]) was > 30 µM (inactive) in each case.

`Cc1cc(-c2cc(O)ccc2Cl)cc2nnc(Nc3ccc(OCCN4CCCC4)cc3)nc12`: the Kd (in [1]; in test [3]; in test [4]; on Myosin-10; on Obg-like ATPase 1; in test [5]) was > 30 µM (inactive) each time. Besides, the Kd in test [6] and in test [7] was > 30 µM (inactive) in each case.

Turning to `OCCn1cc(-c2cnc3nnn(Cc4ccc5ncccc5c4)c3n2)cn1` [PF-04217903], the Kd (in [1]; in test [2]; on Misshapen-like kinase 1; on Myosin-10; at Obg-like ATPase 1; in test [5]) was > 30 µM (inactive) throughout. Besides, the Kd in test [6] and in test [7] was > 30 µM (inactive) throughout.

As for `CC[C@H](Nc1ncnc2[nH]cnc12)c1nc2cccc(F)c2c(=O)n1-c1ccccc1` [IDELALISIB], the Kd (in test [1]; in test [8]; in test [3]; on Misshapen-like kinase 1; in [5]; in test [6]) was > 30 µM (inactive) in each case. Further, in test [7], the Kd was > 30 µM (inactive).

Regarding `O=C(c1ccc(F)c(F)c1Nc1ccc(I)cc1F)N1CC(O)([C@@H]2CCCCN2)C1` [COBIMETINIB], the Kd (in test [1]; in test [8]; in test [3]; in [4]; at Misshapen-like kinase 1; in [5]) was > 30 µM (inactive) throughout. In addition, the Kd in test [6] and in test [7] was > 30 µM (inactive) in each case.

Consider `Cc1ccc(S(=O)(=O)Nc2nc3ccccc3nc2Nc2ccc3nsnc3c2)cc1`, for which the Kd (in test [1]; in test [8]; in test [2]; in [3]; on Myosin-10; on Obg-like ATPase 1) was > 30 µM (inactive) each time. Also, the Kd in test [5], in test [6] and in test [7] was > 30 µM (inactive) in each case.

Consider `Cc1cc([C@@H](C)Nc2ccccc2C(=O)O)c2nc(N3CCOCC3)cc(=O)n2c1` [AZD-6482], for which the Kd (in [1]; in [8]; in test [3]; in test [4]; at Myosin-10; at Obg-like ATPase 1) was > 30 µM (inactive) each time. For the same compound, the Kd in test [5], in [6] and in [7] was > 30 µM (inactive) throughout.
